The values that follow come from ChEMBL document CHEMBL5154935, “Design, Synthesis, and Biological Evaluation of Novel Evodiamine Derivatives as Potential Antihepatocellular Carcinoma Agents” (J Med Chem, 2022).

Calls of active or inactive are those of the source. No cut-off for these calls is given here. Some results are limits rather than exact numbers.

Series [1] is described as follows: Acute toxicity in Kunming mouse assessed as animal survival at 100 mg/kg, ip measured for 14 consecutive days. The conditions noted are these: in vivo, 336 h, time 14 day. The format is organism-based.
The subject of series [2] is Huh-7. Nature of the series: Antiproliferative activity against human Huh-7 cells assessed as inhibition of cell viability at less than 0.023 uM treated for 24 hrs by MTT assay. The format is functional. (Tetrazolium assays rely on reduction of a dye to a coloured formazan, in cell work by metabolically active cells.)
Series [3] has as its system Huh-7. Nature of the series: Antiproliferative activity against human Huh-7 cells assessed as inhibition of cell viability at less than 0.021 uM treated for 24 hrs by MTT assay. The format is functional.
Series [4] relates to SK-HEP1. Put plainly: Induction of apoptosis in human SK-Hep1 cells assessed as late apoptotic cells at 10 nM incubated for 24 hrs by annexin V-FITC/PI staining flow cytometry (reference value: 1.13 %). It counts as functional. (In flow cytometry, cells or beads pass a laser one at a time.)
The test system of series [5] is SK-HEP1. Put plainly: Induction of apoptosis in human SK-Hep1 cells assessed as early apoptotic cells at 80 nM incubated for 24 hrs by annexin V-FITC/PI staining flow cytometry (reference value: 0.30 %). It counts as functional.
The test system of series [6] is SK-HEP1. Nature of the series: Induction of mitochondrial membrane potential changes in human SK-Hep1 cells assessed as decrease in TMRE positive cells at 10 to 80 nM incubated for 24 hrs by TMRE staining based flow cytometry (reference value: 86.19 %). The format is functional. On the set-up: scale not given: the % may be the effect or the level left. The conditions noted are these: dose 10-80 nM.

Series [7] is described as follows: Acute toxicity in Kunming mouse assessed as frequency of eating at 100 mg/kg, ip measured for 14 consecutive days. The format is organism-based. Particulars: in vivo, 336 h, time 14 day.
The nature of series [8]: Acute toxicity in Kunming mouse assessed as frequency of defecation at 100 mg/kg, ip measured for 14 consecutive days. The format is organism-based. The conditions noted are these: in vivo, 336 h, time 14 day.
Series [9] relates to SK-HEP1. Nature of the series: Antiproliferative activity against human SK-Hep1 cells assessed as inhibition of cell viability at less than 0.068 uM treated for 24 hrs by MTT assay. The format is functional.
Series [10] deals with SK-HEP1. Nature of the series: Antiproliferative activity against human SK-Hep1 cells assessed as inhibition of cell viability at less than 0.227 uM treated for 24 hrs by MTT assay. It counts as functional.
The test system of series [11] is SK-HEP1. Put plainly: Induction of mitochondrial membrane potential changes in human SK-Hep1 cells assessed as decrease in TMRE positive cells at 10 to 80 nM incubated for 24 hrs by TMRE staining based flow cytometry (reference value: 87.92 %). The format is functional. On the set-up: scale not given: the % may be the effect or the level left. Particulars: dose 10-80 nM.

A short description of series [12]: Acute toxicity in Kunming mouse assessed as animal survival at 400 mg/kg, ip measured for 14 consecutive days. It counts as organism-based. The conditions noted are these: in vivo, 336 h, time 14 day.
The nature of series [13]: Acute toxicity in Kunming mouse assessed as frequency of eating at 400 mg/kg, ip measured for 14 consecutive days. It counts as organism-based. Particulars: in vivo, 336 h, time 14 day.
Series [14] in a line: Acute toxicity in Kunming mouse assessed as frequency of defecation at 400 mg/kg, ip measured for 14 consecutive days. It counts as organism-based. The conditions noted are these: in vivo, 336 h, time 14 day.
Series [15] deals with Huh-7. Put plainly: Antitumor activity in human Huh-7 cells xenografted in BALB/c mouse assessed as decrease in Ki-67 positive cells at 10 mg/kg, ip qd for 11 days and measured on day 12 by immunohistochemistry staining based assay. It counts as functional, organism-based. Particulars: time 12.0 day. Background: In xenograft studies the graft and the host belong to different species.

For series [16], the system named is Huh-7. Nature of the series: Antitumor activity against human Huh-7 cells xenografted in BALB/c mouse assessed as tumor growth inhibition at 10 mg/kg, ip qd for 11 days and measured every 2 days relative to control. The conditions noted are these: Huh-7, 264 h, time 11 day, read-out: TGI. It counts as functional.
Series [17] in a line: Toxicity in BALB/c mouse xenografted with human Huh-7 cells assessed as decrease in body weight at 10 mg/kg, ip qd for 11 days and measured every 2 days. The format is organism-based. The conditions noted are these: in vivo, 264 h, time 11 day.
Series [18] deals with Huh-7. Nature of the series: Antitumor activity against human Huh-7 cells xenografted in BALB/c mouse assessed as reduction in neo-vascularisation at 10 mg/kg, ip qd for 11 days and measured after 12 days by hematoxylin and eosin staining based assay. The conditions noted are these: time 12.0 day. It counts as functional, organism-based.
The nature of series [19]: Toxicity in BALB/c mouse xenografted with human Huh-7 cells assessed as histopathological change in liver at 10 mg/kg, ip qd for 11 days and measured after 12 days by hematoxylin and eosin staining based assay. It counts as organism-based. The conditions noted are these: in vivo, 288 h, time 12 day.
A short description of series [20]: Toxicity in BALB/c mouse xenografted with human Huh-7 cells assessed as histopathological change in kidney at 10 mg/kg, ip qd for 11 days and measured after 12 days by hematoxylin and eosin staining based assay. It counts as organism-based. Particulars: in vivo, 288 h, time 12 day.
Series [21] can be described thus: Toxicity in BALB/c mouse xenografted with human Huh-7 cells assessed as histopathological change in heart at 10 mg/kg, ip qd for 11 days and measured after 12 days by hematoxylin and eosin staining based assay. It counts as organism-based. The conditions noted are these: in vivo, 288 h, time 12 day.
A short description of series [22]: Toxicity in BALB/c mouse xenografted with human Huh-7 cells assessed as histopathological change in lung at 10 mg/kg, ip qd for 11 days and measured after 12 days by hematoxylin and eosin staining based assay. The format is organism-based. The conditions noted are these: in vivo, 288 h, time 12 day.
A short description of series [23]: Toxicity in BALB/c mouse xenografted with human Huh-7 cells assessed as histopathological change in spleen at 10 mg/kg, ip qd for 11 days and measured after 12 days by hematoxylin and eosin staining based assay. The conditions noted are these: in vivo, 288 h, time 12 day. It counts as organism-based.
Series [24] can be described thus: Toxicity in BALB/c mouse xenografted with human Huh-7 cells assessed as reduction in platelet levels at 10 mg/kg, ip qd for 11 days and measured on day 11. The format is organism-based. The conditions noted are these: in vivo, 264 h, time 11 day.
Series [25] can be described thus: Toxicity in BALB/c mouse xenografted with human Huh-7 cells assessed as reduction in WBC levels at 10 mg/kg, ip qd for 11 days and measured on day 11. Particulars: in vivo, 264 h, time 11 day. It counts as organism-based.
Series [26] can be described thus: Toxicity in BALB/c mouse xenografted with human Huh-7 cells assessed as reduction in RBC levels at 10 mg/kg, ip qd for 11 days and measured on day 11. It counts as organism-based, Erythrocyte. Particulars: in vivo, 264 h, time 11 day.
Series [27] can be described thus: Toxicity in BALB/c mouse xenografted with human Huh-7 cells assessed as bone marrow suppression at 10 mg/kg, ip qd for 11 days and measured on day 11. It counts as organism-based. The conditions noted are these: in vivo, 264 h, time 11 day.
Series [28] in a line: Toxicity in BALB/c mouse xenografted with human Huh-7 cells assessed as aplastic anemia at 10 mg/kg, ip qd for 11 days and measured on day 11. The format is organism-based. The conditions noted are these: in vivo, 264 h, time 11 day.
Series [29] can be described thus: Half life in Sprague-Dawley rat at 80 mg/kg, ip measured upto 24 hrs by LC-MS analysis. The format is ADME, organism-based. Particulars: in vivo.
Series [30] in a line: Tmax in Sprague-Dawley rat at 80 mg/kg, ip measured upto 24 hrs by LC-MS analysis. The format is ADME, organism-based. The conditions noted are these: in vivo.
Series [31] is described as follows: Cmax in Sprague-Dawley rat at 80 mg/kg, ip measured upto 24 hrs by LC-MS analysis. On the set-up: dose 80 mg/kg, time < 24 hrs, route ip. The conditions noted are these: in vivo. The format is ADME, organism-based.
Series [32] in a line: AUC (0 to t) in Sprague-Dawley rat at 80 mg/kg, ip measured upto 24 hrs by LC-MS analysis. The conditions noted are these: in vivo. On the set-up: time < 24 hrs, dose 80 mg/kg, route ip. The format is ADME, organism-based.
The nature of series [33]: MRT (0 to t) in Sprague-Dawley rat at 80 mg/kg, ip measured upto 24 hrs by LC-MS analysis. The format is ADME, organism-based. Particulars: in vivo.

Regarding `O=C1c2cc(F)cc(F)c2N(c2cccc(F)c2)C2c3[nH]c4ccc(O)cc4c3CCN12` (stereo not given), the Activity entry in [1] was “Non-Toxic”; in series [2], greater than 80%; in series [3], greater than 80%; in [4] it was 3.83%; in [5], 0.75%; in series [6], 63.69%. The Activity entry in [7] and in [8] was “Non-Toxic” in each case.

`CC(=O)Oc1ccc2[nH]c3c(c2c1)CCN1C(=O)c2cc(F)cc(F)c2N(c2cccc(F)c2)C31` (stereo not given): the Activity is listed as greater than 80% in series [9]; greater than 80% in series [10]; 7.45% in series [4]; 13.5% in series [5]; 65.21% in [11]; “Non-Toxic” in series [12]. In addition, the Activity entry in [13], in series [14], in [17], in series [19], in series [20] and in series [21] was “Non-Toxic” throughout. The Activity result in series [22], in series [23], in series [24], in series [25], in series [26] and in [27] was “Non-Toxic” throughout. Also, the Activity entry in series [28] is on record as “Non-Toxic”. The result in series [15] and in [18] was Active. In addition, in series [16], the inhibition in vivo at 10 mg/kg stood at 60.4%. Moreover, the half-life (commonly the time in which the quantity being followed falls by half) in [29] is 7.24 h. The Tmax (as a rule, the time from dosing to the highest level) in series [30] was found to be 3 h. The highest concentration (Cmax) (as a rule, the highest concentration seen after dosing) in series [31] came out at 350 ng/mL. Besides, the AUC(0-t) (usually exposure summed from dosing to a finite time, without extrapolation to infinity) at 24 h in [32] was determined as 3070 ng·h/mL. Moreover, the mean residence time (MRT last) – broadly, the average time that molecules of a dose stay in the body – at 24 h in series [33] is 11.5 h.
